# Read-outs that look alike come from different tables or passages of the source. Ends that are not written are not given here.
# Columns and labels:
# [1] = target: T1, DRB1*0301 (DR3w17) (Homo sapiens, UniProt P01903+P01911, A100K/A102G/A103R/A169T/F55Y/I96L/K41T/L162R/M171V/P40S/Q125H/Q178H/Q39Y/R42S/S66N/T106N/T262R/W38E/Y61H); test: Class II peptide-binding assay, DR3 (pH 4.5);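 further: unlabeled peptide competing with a radiolabeled probe peptide for binding to affinity-purified HLA-DR3, IC50 regarded as an approximation of Kd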
# T1 construct: used as sources of human HLA class II molecules; endogenous in cells; host or cells: MAT (EBV-transformed homozygous B cell line)
# T1 sequence (P01903 26-254, other chains not shown): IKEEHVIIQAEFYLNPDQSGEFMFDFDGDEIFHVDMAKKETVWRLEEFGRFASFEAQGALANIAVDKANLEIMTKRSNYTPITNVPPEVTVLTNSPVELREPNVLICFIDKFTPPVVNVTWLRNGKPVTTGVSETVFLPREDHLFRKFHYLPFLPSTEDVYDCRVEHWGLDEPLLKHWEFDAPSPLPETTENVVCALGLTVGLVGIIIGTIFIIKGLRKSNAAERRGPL
# Description: (§1) Class II peptide-binding assays. […] These assays were chosen as to be representative of the most common DR alleles.
# In appropriate stoichiometric conditions, the IC50 of an unlabeled test peptide to the purified DR is a reasonable approximation of the affinity of interaction (Kd). Peptides were tested in two to four completely independent experiments. […] Final detergent concentration in the incubation mixture was 0.05% Nonidet P-40. Assays were performed at pH 7.0 with the exception of DR3, which was performed at pH 4.5, and DRw53, which was performed at pH 5.0.
# (§2) All subsequent inhibition and direct binding assays were the performed using these class II concentrations.
# [2] = target: T2, DRB1*0101 (DR1) (Homo sapiens, UniProt P01903+P01911, A100R/D57E/F55L/F60I/F76Y/I96L/L162R/M171V/P40L/Q125E/R42F/V115G/Y59C); test: Class II peptide-binding assay, DR1; conditions: read-out: DR1 nM (In IC50 Format); purified HLA DR1;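 further: competition assay: unlabeled test peptides inhibit binding of a radiolabeled probe peptide to purified DR, with half-maximal inhibition taken as an approximate dissociation constant Kd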
# T2 construct: used as sources of human HLA class II molecules; endogenous in cells; host or cells: LG2 (EBV-transformed homozygous B cell line)
# [3] = target: T3, DRB5*0101 (DR2w2a) (Homo sapiens, UniProt P01903+Q30154); test: Class II peptide-binding assay, DR2w2a (DR2w2B2); conditions: read-out: DR2w2B2 nM (In IC50 Format); purified HLA DR2w2β2;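 further: competitive binding assay: unlabeled peptide inhibiting binding of a radiolabeled probe peptide to purified DR molecules at pH 7.0, IC50 approximating Kd, lower means stronger binding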
# T3 construct: used as sources of human HLA class II molecules; endogenous in cells; host or cells: GM3107 (EBV-transformed homozygous B cell line)
# [4] = target: T4, DRB10404 (DR4w14) (Homo sapiens, UniProt P01903+P01911, A100R/A169T/F76Y/I96L/K127E/L162R/M171V/N62H/P40V/Q125Y/R42H/S133A/S149N/S66Y/V209L/W38E); test: Class II peptide-binding assay, DR4w14; conditions: read-out: DR4w14 nM (In IC50 Format); purified HLA DR4w14;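 further: unlabeled peptides compete with a radiolabeled probe for binding to affinity-purified HLA-DR, neutral pH, class II amount titrated to bind a small fraction of label, IC50 approximates Kd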
# T4 construct: used as sources of human HLA class II molecules; endogenous in cells; host or cells: BIN40 (EBV-transformed homozygous B cell line)
# [5] = target: T5, DRB1*0401 (DR4w4) (Homo sapiens, UniProt P01903+P01911, A100K/A169T/F76Y/I96L/K127E/L162R/M171V/N62H/P40V/Q125Y/R42H/S133A/S149N/S66Y/V115G/V209L/W38E); test: Class II peptide-binding assay, DR4w4; conditions: read-out: DR4w4 nM (In IC50 Format); purified HLA DR4w4;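 further: unlabeled test peptides compete with a radiolabeled probe peptide for binding to affinity-purified HLA-DR, with DR amount titrated to capture a small fraction of label, IC50 approximating Kd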
# T5 construct: used as sources of human HLA class II molecules; endogenous in cells; host or cells: PREISS (EBV-transformed homozygous B cell line)
# Description: as §1
# (§3) Radiolabeled peptides were iodinated using the chloramine-T method. […] In appropriate stoichiometric conditions, the IC50 of an unlabeled test peptide to the purified DR is a reasonable approximation of the affinity of interaction (Kd). Peptides were tested in two to four completely independent experiments. […] Final detergent concentration in the incubation mixture was 0.05% Nonidet P-40. Assays were performed at pH 7.0 with the exception of DR3, which was performed at pH 4.5, and DRw53, which was performed at pH 5.0.
# as §2
# [6] = target: T6, DRB1*1101 (DR5w11) (Homo sapiens, UniProt P01903+P01911, A100R/A169T/A87E/I96F/K41T/L162R/M171V/P40S/Q125H/Q178H/Q39Y/Q99D/R42S/S66Y/T262R/V115G/W38E); test: Class II peptide-binding assay, DR5w11; conditions: read-out: DR5w11 nM (In IC50 Format); purified HLA DR5w11;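 further: competition by unlabeled test peptide against iodinated probe peptide binding to affinity-purified HLA-DR, class II amount titrated beforehand, half-maximal inhibitory concentration read as approximate Kd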
# T6 construct: used as sources of human HLA class II molecules; endogenous in cells; host or cells: SWEIG (EBV-transformed homozygous B cell line)
# T6 sequence (P01903 26-254, other chains not shown): as above
# Description: as §1, §3, §2
# [7] = read-out: In IC50 Format DR3 nM, Table VIII, values in parentheses read as lower bounds
Substance,"IC50 [1, 7]",further results
ETEYHADGGKVPIKW [Peptide 39.0367],> 111 µM,
FVVIQNEDLGPASPL [Peptide 39.0372],> 120 µM,
GDLVDAEEYLVPQQG [Peptide 39.0375],12 µM,
KNGVVKDVFAFGGAV [Peptide 39.0381],> 120 µM,
LVTYNTDTFESMPNP [Peptide 39.0345],> 111 µM,
MRRLLQETELVEPLT [Peptide 39.0360],> 111 µM,
NKEILDEAYVMAGVG [Peptide 39.0363],63.8 µM,
NQEVTAEDGTQRCEK [Peptide 39.0347],> 111 µM,
QGFFCPDPAPGAGGM [Peptide 39.0376],66.7 µM,
SDVFDGDLGMGAAKG [Peptide 39.0378],> 120 µM,
SLAFLPESFDGDPAS [Peptide 39.0349],> 111 µM,
SLSFLQDIQEVQGYV [Peptide 39.0339],,"IC50 ([1]; Table VIII, values in parentheses read as lower bounds, read-out: In IC50 Format DR3): 5.77 µM"
TVPLPSETDGYVAPL [Peptide 39.0380],> 120 µM,
YAEFQAEKTLKAAS-NH2 [Peptide 717.05],,"IC50 [2]: 0.0082 µM; IC50 [3]: 0.339 µM; IC50 [4]: 0.0294 µM; IC50 ([1]; read-out: DR3 nM (In IC50 Format), purified HLA DR3): 4 µM; IC50 [5]: 0.0064 µM; IC50 [6]: 0.0488 µM"

# Source: patent publication EP1388586A2, “Identification of broadly reactive DR restricted epitopes” (priority 1998, dated 1999)
